# Source: US20220259180A1, “BROAD SPECTRUM ANTIVIRAL COMPOUNDS TARGETING THE SKI COMPLEX” (priority 2019, published 2022)
# Entries after “also recorded” stand apart in the source; their conditions may differ. Read-outs that look alike come from different tables or passages of the source.
# Assays:
# Influenza virus = type: cell-based, influenza A virus NL09 strain; details: for first experiment PFU/ml: 0.1% DMSO control 100000; for Antiviral activity against Influenza virus / Flu titer (pfu/ml): A549 cells; for Antiviral activity against Influenza virus: screening at 50 μM, 10 μM (and 1 μM); for IC50: read-out: IC50 against IAV; for Flu titer (pfu/ml): plaque assay
# MERS-CoV = type: cell-based, MERS-CoV (Jordan strain); details: Huh7 cells, MOI 0.1, 24 h; read-out: IC50 against MERS-CoV
# IAV = assay: Time of addition assay, IAV in A549 cells, plaque assay; type: cell-based, influenza A virus
# IAV NS1 mRNA = type: cell-based, influenza A virus
# IAV RNA = assay: Multi-segment RT-PCR (M-RTPCR) of all IAV segments; type: cell-based, influenza A virus
# IAV NS1 = type: cell-based, influenza A virus
# SARS-CoV = type: cell-based; details: 24 h
# SARS-CoV-2 = type: cell-based
# SARS-CoV-2 mRNA = type: cell-based; details: two gene targets (N, RdRp)
# [1] = tested on: Ebola virus Makona strain (EBOV); type: cell-based; details: Huh7 cells, 48 h; read-out: IC50 against EBOV
# [2] = tested on: Marburg virus Angola strain (MARV); type: cell-based; details: Huh7 cells, 48 h; read-out: IC50 against MARV
# A549 cells = details: 24 h, CellTiter-Glo
# Huh7 cells = details: 24 h, CellTiter-Glo
# [3] = 10 μM compound, DMSO (0.1%) control 153000
# [4] = 50 μM compound, DMSO (0.5%) control 58700
# [5] = 1 μm compound, DMSO (0.1%) control 153000
structure (smiles),measurement,setting,value
COc1ccc(CNC2CCCC2)c(OCC(O)CN2CCN(C)CC2)c1 (centres unmarked) [18-1],first experiment PFU/ml,Influenza virus; 10 μM screen,60000 PFU/ml
COc1ccc(CNCCc2ccccc2C)c(OCC(O)CN2CCN(C)CC2)c1 (centres unmarked) [18-2],first experiment PFU/ml,Influenza virus; 10 μM screen,500 PFU/ml
same,Antiviral activity against Influenza virus,Influenza virus; listed as 27092311,increased activity
COc1ccc(CNC2Cc3ccccc3C2)c(OCC(O)CN2CCN(C)CC2)c1 (centres unmarked) [18-3],first experiment PFU/ml,Influenza virus; 10 μM screen,12000 PFU/ml
COc1ccc(CNCCc2ccccc2Cl)c(OCC(O)CN2CCN(C)CC2)c1 (centres unmarked) [18-4],first experiment PFU/ml,Influenza virus; 10 μM screen,7000 PFU/ml
COc1ccc(CNCC2CCCCC2)c(OCC(O)CN2CCN(C)CC2)c1 (centres unmarked) [18-5],first experiment PFU/ml,Influenza virus; 10 μM screen,60000 PFU/ml
COc1ccc(CNCCc2ccccc2)c(OCC(O)CN2CCN(C)CC2)c1 (centres unmarked) [18-6],first experiment PFU/ml,Influenza virus; 10 μM screen,10000 PFU/ml
COc1ccc(CNCCCn2ccnc2C)c(OCC(O)CN2CCN(C)CC2)c1 (centres unmarked) [18-7],first experiment PFU/ml,Influenza virus; 10 μM screen,240000 PFU/ml
COc1ccc(CNC2CCCCCCC2)c(OCC(O)CN2CCN(C)CC2)c1 (centres unmarked) [18-8],first experiment PFU/ml,Influenza virus; 10 μM screen,3000 PFU/ml
COc1ccc(CNCCc2cccnc2)c(OCC(O)CN2CCCCCCC2)c1 (centres unmarked) [18-9],first experiment PFU/ml,Influenza virus; 10 μM screen,200000 PFU/ml
COc1ccc(CNC2CCCCC2)c(OCC(O)CN2CCN(C)CC2)c1 (centres unmarked) [18-10],first experiment PFU/ml,Influenza virus; 10 μM screen,40000 PFU/ml
COCCCNCc1ccc(OC)cc1OCC(O)CN1CCN(C)CC1 (centres unmarked) [18-11],first experiment PFU/ml,Influenza virus; 10 μM screen,100000 PFU/ml
COc1ccc(CNCC(F)(F)F)c(OCC(O)CN2CCN(C)CC2)c1 (centres unmarked) [18-12],first experiment PFU/ml,Influenza virus; 10 μM screen,30000 PFU/ml
COc1ccc(CNCCCn2cccn2)c(OCC(O)CN2CCN(C)CC2)c1 (centres unmarked) [18-13],first experiment PFU/ml,Influenza virus; 10 μM screen,40000 PFU/ml
COc1ccc(CNCCCSC)c(OCC(O)CN2CCCCCCC2)c1 (centres unmarked) [18-14],first experiment PFU/ml,Influenza virus; 10 μM screen,44000 PFU/ml
COc1ccc(CNCCCn2ccnc2)c(OCC(O)CN2CCN(C)CC2)c1 (centres unmarked) [18-15],"Influenza virus plaque assay titer, 10 μM","Influenza virus; compound at 10 μM, DMSO control 100000",36000 PFU/virus/ml
COc1ccc(CNCCCSC)c(OCC(O)CN2CCN(C)CC2)c1 (centres unmarked) [18-16],first experiment PFU/ml,Influenza virus; 10 μM screen,210000 PFU/ml
"COc1ccc(CNCCc2ccccc2F)c(OCC(O)CN2CCN(C)CC2)c1 (centres unmarked) [18-lead, 1-[2-({[2-(2-fluorophenyl)ethyl]amino}methyl)-5-methoxyphenoxy]-3-(4-methyl-1-piperazinyl)-2-propanol]",first experiment PFU/ml,Influenza virus; 10 μM screen,2000 PFU/ml
same,1-24-20 (triplicate wells) PFU/ml,"Influenza virus; 10 μM screen, well 1, 0.1% DMSO control 23000",1300 PFU/ml
same,1-24-20 (triplicate wells) PFU/ml,"Influenza virus; 10 μM screen, well 2, 0.1% DMSO control 19000",1000 PFU/ml
same,1-24-20 (triplicate wells) PFU/ml,"Influenza virus; 10 μM screen, well 3, 0.1% DMSO control 29000",4000 PFU/ml
same,1-24-20 (triplicate wells) PFU/ml,"Influenza virus; 50 μM screen, well 1, 0.5% DMSO control 21000",600 PFU/ml
same,1-24-20 (triplicate wells) PFU/ml,"Influenza virus; 50 μM screen, well 2, 0.5% DMSO control 5300",200 PFU/ml
same,1-24-20 (triplicate wells) PFU/ml,"Influenza virus; 50 μM screen, well 3, 0.5% DMSO control 15000",300 PFU/ml
COc1ccc(CNCCc2ccccc2C)c(OCC(O)CN2CCN(C)CC2)c1 (centres unmarked) [UMB18-2],IC50,Influenza virus,~5 µM
same,IC50,MERS-CoV,~5 µM
same,"Inhibition of IAV, drug added 2 h after infection (+2 h)",IAV,marked reduction in the level of inhibition
same,NS1 mRNA,IAV NS1 mRNA,marked reduction in mRNA
same,IAV RNA amplified by M-RTPCR,IAV RNA,total loss of IAV RNA
same,NS1 protein,IAV NS1,lack of NS1 protein
same,Inhibition of SARS-CoV virus production,SARS-CoV; 10 μM,"inhibition, but to a lesser extent"
same,Reduction in SARS-CoV virus production,SARS-CoV; 50 μM,1 log
same,Inhibition of SARS-CoV-2 virus production (TCID50),SARS-CoV-2,capable of inhibiting virus production; also recorded: less so
same,SARS-CoV-2 mRNA production,SARS-CoV-2 mRNA,capable of inhibiting SARS-CoV-2 mRNA production
COc1ccc(CNCCc2ccccc2F)c(OCC(O)CN2CCN(C)CC2)c1 (centres unmarked) [UMB18],Antiviral activity against Influenza virus,Influenza virus,antiviral activity against influenza
same,IC50,Influenza virus,~5 µM
same,IC50,MERS-CoV,~5 µM
same,IC50,[1],~5 µM
same,IC50,[2],~16 µM
same,"Inhibition of IAV, drug added 2 h after infection (+2 h)",IAV,marked reduction in the level of inhibition
same,NS1 mRNA,IAV NS1 mRNA,marked reduction in mRNA
same,NS1 protein,IAV NS1,lack of NS1 protein
same,Cell cytotoxicity at antiviral concentrations,A549 cells,minimal toxicity
same,Cell cytotoxicity at antiviral concentrations,Huh7 cells,minimal toxicity
"COc1ccc(OC)c(Cc2nnc(CCC(=O)NC3CC(C)(C)CC(C)(C)C3)o2)c1 [compound 35434810, 3-4[5-(2,5-dimethoxybenzyl)-1,3,4-oxadiazol-2-yl]-N-(3,3,5,5-tetramethylcyclohexyl)propanamide]",Flu titer (pfu/ml),Influenza virus; [3],80000 pfu/ml
same,Flu titer (pfu/ml),Influenza virus; [4],130000 pfu/ml
same,Flu titer (pfu/ml),Influenza virus; [5],80000 pfu/ml
OCCN(Cc1nc(Cc2cccc(C(F)(F)F)c2)no1)CC12CC3CC(CC(C3)C1)C2 [compound 61121342],Flu titer (pfu/ml),Influenza virus; [3],130000 pfu/ml
same,Flu titer (pfu/ml),Influenza virus; [4],50000 pfu/ml
same,Flu titer (pfu/ml),Influenza virus; [5],9000 pfu/ml
